Publication PMC6372683, “Mechanism of the natural product moracin-O derived MO-460 and its targeting protein hnRNPA2B1 on HIF-1α inhibition” (Experimental & Molecular Medicine, 2019)

Columns and labels:
[1] = tested on: HIF-1α translation in presence of hnRNPA2B1; assay: In vitro transcription/translation assay of HIF-1α; assay type: biochemical, human; conditions: purified hnRNPA2B1 protein added
Method: HIF-1α proteins were synthesized using in vitro transcription/translation systems (Promega, Madison, WI), the protocol was followed the manufacturer’s instructions. In brief, mixtures containing reaction components were incubated at 30 °C for 60 min, and then analyzed by Western blotting using HIF-1α. The template was used HIF-1α plasmid DNA containing untranslated region (Korea human gene bank, Daejeon, Rep. of Korea), and full-length recombinant hnRNPA2B1 and MO-460 were added to the mixture.

[2] = molecular target: T1, hnRNPA2B1 GRD3 (301–353 aa) (Homo sapiens, UniProt P22626); assay: BLItz association-dissociation binding assay, GST-fused GRD3; conditions: Con. 5 uM
T1 construct: hnRNPA2B1(301-353aa); made in house; host or cells: bacteria (pGEX6P-1 vector)
T1 sequence (P22626 301-353): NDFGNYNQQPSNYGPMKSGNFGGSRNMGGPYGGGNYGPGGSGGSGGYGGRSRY
Method: (§1) The binding capacity of hnRNPA2B1 to Biotin-MO-460 was also analyzed using a BLItz™ (Fortebio, Inc., CA, US) instrument with a streptavidin-coated biosensor tip (Pall, USA). The streptavidin-coated tips were pre-wetted for 10 min in an incubation buffer (10 mM HEPES pH 7.4, 1% BSA and 0.05% Tween 20). The streptavidin-coated tips were immobilized with 1 μM Biotin-MO-460 in incubation buffer (10 mM HEPES pH 7.4, 1% BSA and 0.05% Tween 20) for 5 min. The biosensor was washed with HEPES (pH 7.4) and incubated with 250-, 500- and 1,000-nM concentrations of the full-length and truncated hnRNPA2B1 proteins for 3 min. The concentrations were then incubated with HEPES for another 3 min to desorb the protein. Analysis of the accurate and precise kinetic constants was performed by the BLItz data analysis software (BLItz Pro 1.1).

HIF-1α protein = molecular target: T2, HIF-1α protein (Homo sapiens, UniProt Q16665); assay: Affinity capture with Biotin-MO-460 followed by LC/MS; assay type: binding; conditions: two rounds of the affinity capture experiment
T2 construct: endogenous in cells; host or cells: Hep3B (cytosolic and nuclear lysates, CoCl2-treated)
T2 sequence (Q16665 whole entry): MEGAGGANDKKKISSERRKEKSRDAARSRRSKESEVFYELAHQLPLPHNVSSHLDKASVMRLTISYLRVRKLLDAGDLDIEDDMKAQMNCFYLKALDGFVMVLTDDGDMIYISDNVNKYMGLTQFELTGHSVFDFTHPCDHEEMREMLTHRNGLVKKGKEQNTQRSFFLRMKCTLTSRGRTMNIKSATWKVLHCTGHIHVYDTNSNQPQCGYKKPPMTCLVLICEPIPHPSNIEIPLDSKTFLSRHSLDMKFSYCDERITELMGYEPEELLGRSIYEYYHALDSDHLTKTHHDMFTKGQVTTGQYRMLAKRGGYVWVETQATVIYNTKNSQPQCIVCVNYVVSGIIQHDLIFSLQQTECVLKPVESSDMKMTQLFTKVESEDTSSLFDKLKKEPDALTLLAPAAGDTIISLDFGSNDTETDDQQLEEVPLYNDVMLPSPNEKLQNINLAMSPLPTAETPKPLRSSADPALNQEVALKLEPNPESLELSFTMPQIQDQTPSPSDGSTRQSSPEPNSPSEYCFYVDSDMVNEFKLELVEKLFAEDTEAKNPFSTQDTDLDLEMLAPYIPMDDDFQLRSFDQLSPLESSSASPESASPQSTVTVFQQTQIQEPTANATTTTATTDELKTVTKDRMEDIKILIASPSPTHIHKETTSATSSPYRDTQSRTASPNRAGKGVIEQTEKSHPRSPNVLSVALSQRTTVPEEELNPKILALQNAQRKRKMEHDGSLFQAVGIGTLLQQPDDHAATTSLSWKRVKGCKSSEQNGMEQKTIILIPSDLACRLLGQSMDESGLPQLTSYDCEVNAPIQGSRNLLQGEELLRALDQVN
Method: We synthesized biotinylated MO-460 using a recently reported method. Fractionation and enrichment of cytosol and nuclei were performed as described previously. Briefly, Hep3B (Human hepatocyte cancer cell line) was harvested and washed twice with PBS after treatment with 200 μM of CoCl2 for 24 h, and then resuspended in lysis buffer [10 mM HEPES pH 7.9, 10 mM KCl, 0.1 mM EGTA, 0.1 mM EDTA, 0.5 mM PMSF, 0.025% 2-Mercaptoethanol, 1.6% NP-40, and protease inhibitor cocktail]. After cell lysis and homogenization by vortexing for 10 s, the insoluble material was removed by centrifugation. The supernatant was collected as a cytosol-enriched lysate. The pellet was resuspended in nuclear extract buffer [20 mM HEPES pH 7.9, 400 mM NaCl, 1 mM EGTA, 1 mM EDTA, 1 mM DTT, 1 mM PMSF, protease inhibitor cocktail]. The pellet was then vortexed vigorously at 4 °C to separate the insoluble material. After the cytosol-enriched lysate (97.9 μg of protein) and the nuclei-enriched lysate (67.5 μg of protein) were precleared by incubation with NeutrAvidine^TM agarose-resins (Thermo Scientific) that were conjugated with biotin-linker (cytosol fraction: 600 μM, nuclear fraction: 1200 μM) for 12 h at 4 °C, the cleared cell lysate was incubated with NeutrAvidine^TM agarose-resins bound -Biotin-MO-460 (cytosol fraction: 200 μM, nuclear fraction: 400 μM) for 16 h at 4 °C, respectively. […]

[3] = molecular target: T3, full-length hnRNPA2B1 (1–353 aa) (Homo sapiens, UniProt P22626); assay: BLItz association-dissociation binding assay, full-length hnRNPA2B1; conditions: 6XHis tagged protein, Con. 5 uM, biotin-MO-460 on streptavidin tip
T3 construct: 1–353 aa; His; made in house; host or cells: bacteria (pET28A vector)
T3 sequence (P22626 whole entry, the tested form may be a part): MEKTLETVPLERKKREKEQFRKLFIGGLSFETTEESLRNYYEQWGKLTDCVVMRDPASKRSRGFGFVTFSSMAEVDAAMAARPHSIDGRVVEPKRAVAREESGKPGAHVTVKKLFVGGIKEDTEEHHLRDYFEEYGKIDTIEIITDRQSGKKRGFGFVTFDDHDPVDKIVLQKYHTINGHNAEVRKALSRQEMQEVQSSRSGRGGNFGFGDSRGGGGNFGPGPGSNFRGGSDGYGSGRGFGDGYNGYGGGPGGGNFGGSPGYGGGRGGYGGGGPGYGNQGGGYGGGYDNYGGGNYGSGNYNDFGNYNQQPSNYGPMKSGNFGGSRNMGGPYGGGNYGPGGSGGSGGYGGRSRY
Method: as §1, with “The biosensor was washed with HEPES (pH 7.4) and incubated with 250-, 500- and 1,000-nM concentrations of the full-length and truncated hnRNPA2B1 proteins for 3 min.” left out

Kd [2]: 0.299 µM
binding to HIF-1α protein (HIF-1α protein): did not bind to HIF-1α protein
Kd [3]: 11.4 µM
SMILES: CC(C)(O)[C@H]1Cc2cc3cc(-c4ccc(O)cc4)oc3cc2O1 [MO-460, (R)-4-[6-(1-Hydroxy-1-methylethyl)-5,6-dihydro-benzo[1,2-b;5,4-b’]difuran-2-yl]-phenol]
effect on hnRNPA2B1-enhanced HIF-1α translation [1]: attenuated this effect
